# Key:
# [1] = system: human adult skin fibroblast; assay: iPS cell colony induction, DHCP and GM (Example 29); type: cell-based; details: 10 μM, 2 days; 26th day of culture; N=2
# Protocol: In induction culturing of a pluripotent stem cell, substance treatment with a compound DHCP produced by heating a uronic acid compound derived from an animal and a plant (International Publication No. 98/13328 pamphlet), and GM in which glutathione is added to DHCP (International Publication No. 98/39291 pamphlet) was carried out, and influence on an induction efficiency was studied.
# According to the same manner as that of Example 4-(2), gene transfer was carried out (day 0 of culturing), provided that each 1 mL of the virus solution was added to each well, by diluting 10-fold a solution obtained by three kinds of vectors at an equal amount, with 10F-DMEM.
# (§1) On the sixth day of culture, according to the same manner as that of Example 5-(4), the gene-introduced cell was seeded on a feeder cell, and culturing was continued.
# (§2) In addition, in a control, the substance was not added. After culturing for 2 days, the medium was exchanged with a medium for ES cells, and culturing was continued to the 28th day of culture.
# (§3) In addition, the number in the Table indicates an average value of N=2.
# [2] = system: human adult skin fibroblast; assay: iPS cell colony induction, cell cycle arresting agent treatment (Example 3); type: cell-based; details: 2 days, 22nd day of culture
# Protocol: According to the same manner as that of Example 1-(2), gene transfer was carried out (day 0 of culturing), provided that a plate was washed with PBS containing 1.5% human serum albumin, and centrifugation after cell seeding was not carried out. In addition, gene transfer was carried out in a combination of a retrovirus vector DON5-am-OCT4-IR-SOX2, DON5-am-LIN28-IR-NANOG, or DON5-am-KLF4.
# On the seventh day of culture, according to the same manner as that of Example 1-(4), the gene-introduced cell was seeded on a feeder cell, and culturing was continued.
# In addition, the agent was not added to a control. After culturing for 2 days, the medium was exchanged with a medium for ES cells, and culturing was continued until the 22nd day of culture.
# [3] = system: human adult skin fibroblast; assay: iPS cell colony induction, methylation inhibitor treatment (Example 1); details: 5-aza-2′-deoxycytidine 1 μM for 2 days in medium for ES cells, 28th day of culture
# Protocol: Each 700 μL of the virus solution prepared in Preparation Example 2 was added to each well of the Retronectin-immobilized culture plate prepared in (1) in a combination of Table 3, respectively, and this was centrifuged at 32° C. and 2,000×g for 2 hours.
# Thereafter, the supernatant was removed from each well, washed with PBS once, and each 2 mL of human adult skin fibroblast (manufactured by Lonza) suspended in 10F-DMEM to 5×10^4 cells/mL was seeded on each well. After centrifugation at 32° C. and 500×g for 10 minutes, culturing was initiated in a CO2 incubator at 37° C. (0 day of culture).
# Gene transfer for the second time was carried out on the first day of culture. Each 700 μL of virus solutions prepared by Preparation Example 2 were mixed in a combination of Table 3, and polybrene (hexadimethrine.bromide; manufactured by Aldrich) was added to a final concentration of 8 μg/mL to prepare a retrovirus vector mixed solution. The supernatant was removed from a culture plate which had been cultured in (2), and this retrovirus vector mixed solution was added. After culturing in a CO2 incubator at 37° C. for 4 hours, 2 mL of 10F-DMEM was added. After further culturing for 2 days, the supernatant was removed, 2 mL of 10F-DMEM was added, and culturing was continued.
# The gene-introduced cell on the seventh day of culture made in (3) was recovered, and suspended in 10F-DMEM to 5×10^4 cells/mL. 10 mL of this suspension was seeded on the feeder cell, and culturing was continued.
# On the eighth day of culture (after culturing for 1 day from seeding on the feeder cell), the supernatant was removed, and 10 mL of DMEM not containing serum (0F-DMEM: obtained by removing bovine fetal serum from 10F-DMEM) was added under Protein starvation treatment conditions. […]
# The number of a pluripotent stem cell (iPS cell) under each condition of protein starvation of treatment or methylation inhibitor treatment under each of conditions A, B and C was counted on the 28th day of culture.
# [4] = system: human adult skin fibroblast; assay: iPS cell colony induction, cell cycle arresting agent-3, NU6140 (Example 28); type: cell-based; details: 2 days, 28th day of culture, N=2
# Protocol: In induction culturing of a pluripotent stem cell, substance treatment with […] (manufactured by ALEXIS BIOCHEMICALS) which is one of Cell cycle arresting agents was carried out, and influence on an induction efficiency was studied.
# According to the same manner as that of Example 1-(1), immobilization of Retronectin on a culture plate was carried out, provided that a non-treatment 12-well culture plate (manufactured by Becton, Dickinson and Company) was used, and each 1 mL of a Retronectin solution was added to each well.
# According to the same manner as that of Example 4-(2), gene transfer was carried out (day 0 of culturing), provided that each 1 mL of the virus solution was added to each well, by diluting 100-fold a solution obtained by three kinds of vectors at an equal amount, with 10F-DMEM.
# as §1, §2, §3
# [5] = system: human adult skin fibroblast; assay: iPS cell colony induction, cell cycle arresting agent-2, Purvalanol A with or without Y27632 (Example 27); type: cell-based; details: 26th day of culture, N=2
# Protocol: Regarding Purvalanol A being a Cell cycle arresting agent, for which the effect of promoting induction of a pluripotent stem cell was confirmed in Example 3, extension of the substance treatment term thereof and a combination use thereof with Y-27632 [(R) (+)-trans-4-(1-aminoethyl)-N-(4-pyridyl)cyclohexanecarboxyamide dihydrochloride] which is one of substances suppressing cell death were studied.
# According to the same manner as that of Example 3-(2), gene transfer was carried out (day 0 of culturing), provided that the virus solution was added to each well by each 2 mL, by diluting 10-fold a solution obtained by mixing three kinds of vectors at an equal amount, with 10F-DMEM.
# as §1
# After completion of a substance treatment term, the medium was exchanged with a medium for ES cells, and culturing was continued until the 26th day of culture. […] Regarding the condition under which substance treatment for 4 days to 6 days was carried out, the medium was exchanged at two days interval also during a substance treatment term, and the substance was added at the same concentration every time.
# as §3
compound,measurement,setting,value
"O=C1C=CC(O)C1O (centres unmarked) [DHCP, 4,5-dihydroxy-2-cyclopentene-1-one]",Number of iPS cell colonies,[1],23.5
"NC(=O)NO [Hydroxyurea, hydroxyurea]",Number of iPS cell colonies,[2]; 10 μM,26
same,Number of iPS cell colonies,[2]; 100 μM,13
"Nc1ncn([C@H]2C[C@H](O)[C@@H](CO)O2)c(=O)n1 [Methylation inhibitor, 5-aza-2′-deoxycytidine]",Number of iPS cell colonies,[3]; retrovirus combination Condition A,11
same,Number of iPS cell colonies,[3]; retrovirus combination Condition B,25
same,Number of iPS cell colonies,[3]; retrovirus combination Condition C,8
CCN(CC)C(=O)c1ccc(Nc2nc(OCC3CCCCC3)c3[nH]cnc3n2)cc1 [NU6140],Number of iPS cell colonies,[4]; 0.1 μM,22.5
same,Number of iPS cell colonies,[4]; 1 μM,28.0
CC(C)[C@H](CO)Nc1nc(Nc2cccc(Cl)c2)c2ncn(C(C)C)c2n1 [Purvalanol A],Number of iPS cell colonies,[2]; 0.1 μM,28
same,Number of iPS cell colonies,[2]; 0.5 μM,19
same,Number of iPS cell colonies,[2]; 2 μM,19
same,Number of iPS cell colonies,"[5]; Condition A: 2 μM Purvalanol A, 2 days",26.0
same,Number of iPS cell colonies,"[5]; Condition B: 2 μM Purvalanol A, 4 days",25.5
same,Number of iPS cell colonies,"[5]; Condition C: 2 μM Purvalanol A, 6 days",18.5
